BindingDB's records for doi:10.1021/jm100555f (Harvard Medical School, 2010)

Experiment: Inhibition of Bcr-Abl in mouse BA/F3 cells

Structure (SMILES)	EC50
FC(F)(F)Oc1ccc(Nc2cc(NCCCN3CCOCC3)ncn2)cc1 [N4-(3-morpholinopropyl)-N6-(4-(trifluoromethoxy)phenyl)pyrimidine-4,6-diamine]	4470 nM
COc1ccc(Nc2cc(NCCN3CCOCC3)ncn2)cc1 [N4-(4-methoxyphenyl)-N6-(2-morpholinoethyl)pyrimidine-4,6-diamine]	> 10000 nM
CN(c1ccc(OC(F)(F)F)cc1)c1cc(NCCN2CCOCC2)ncn1 [N4-methyl-N6-(2-morpholinoethyl)-N4-(4-(trifluoromethoxy)phenyl)pyrimidine-4,6-diamine]	> 10000 nM
O=C(NCCO)c1cc2c(Nc3ccc(OC(F)(F)F)cc3)ncnc2s1 [N-(2-Hydroxyethyl)-4-(4-(trifluoromethoxy)phenylamino)thieno[2,3-d]pyrimidine-6-carboxamide]	> 10000 nM
O=C(NCCN1CCOCC1)c1cccc(-c2cc(Nc3ccc(OC(F)(F)F)cc3)ncn2)c1 [N-(2-morpholinoethyl)-3-(6-(4-(trifluoromethoxy)phenylamino)pyrimidin-4-yl)benzamide]	420 nM
FC(F)(F)Oc1ccc(Oc2cc(NCCN3CCOCC3)ncn2)cc1 [N-(2-morpholinoethyl)-6-(4-(trifluoromethoxy)phenoxy)pyrimidin-4-amine]	> 10000 nM
FC(F)(F)Oc1ccc(-c2cc(NCCN3CCOCC3)ncn2)cc1 [N-(2-morpholinoethyl)-6-(4-(trifluoromethoxy)phenyl)pyrimidin-4-amine]	> 10000 nM
CS(=O)(=O)Nc1ccc(-c2cc(Nc3ccc(OC(F)(F)F)cc3)ncn2)cc1 [N-(4-(6-(4-(trifluoromethoxy)phenylamino)pyrimidin-4-yl)phenyl)methanesulfonamide]	40 nM
FC(F)(F)Oc1ccc(Nc2ncnc3[nH]ccc23)cc1 [N-(4-(Trifluoromethoxy)phenyl)-7H-pyrrolo[2,3-d]pyrimidin-4-amine]	> 10000 nM
FC(F)(F)Oc1ccc(Nc2ncnc3n[nH]cc23)cc1 [N-(4-(trifluoromethoxy)phenyl)-1H-pyrazolo[3,4-d]pyrimidin-4-amine]	1300 nM
Cc1nn(C)c(C)c1-c1cc(Nc2ccc(OC(F)(F)F)cc2)ncn1 [N-(4-(trifluoromethoxy)phenyl)-6-(1,3,5-trimethyl-1H-pyrazol-4-yl)pyrimidin-4-amine]	150 nM
Fc1ccc(Nc2cc(-c3ccncc3)ncn2)cc1 [N-(4-fluorophenyl)-6-(pyridin-4-yl)pyrimidin-4-amine]	> 10000 nM
COc1ccc(Nc2cc(-c3ccncc3)ncn2)cc1 [N-(4-methoxyphenyl)-6-(pyridin-4-yl)pyrimidin-4-amine]	> 10000 nM
CCNC(=O)c1cc2c(Nc3ccc(OC(F)(F)F)cc3)ncnc2s1 [N-ethyl-4-(4-(trifluoromethoxy)phenylamino)thieno[2,3-d]pyrimidine-6-carboxamide]	918 nM
CNC(=O)c1cccc(-c2cc(Nc3ccc(OC(F)(F)F)cc3)ncn2)c1 [N-methyl-3-(6-(4-(trifluoromethoxy)phenylamino)pyrimidin-4-yl)benzamide]	340 nM
CN(c1ccc(OC(F)(F)F)cc1)c1cc(-c2ccncc2)ncn1 [N-methyl-6-(pyridin-4-yl)-N-(4-(trifluoromethoxy)phenyl)pyrimidin-4-amine]	> 10000 nM
COC(=O)c1cc2c(Nc3ccc(OC(F)(F)F)cc3)ncnc2s1 [methyl 4-(4-(trifluoromethoxy)phenylamino)thieno[2,3-d]pyrimidine-6-carboxylateMethyl 4-(4-(Trifluoromethoxy)-phenylamino)thieno[2,3-d]pyrimidine-6-carboxylate]	5600 nM
O=C(c1cccc(-c2cc(Nc3ccc(OC(F)(F)F)cc3)ncn2)c1)N1CCOCC1 [morpholino(3-(6-(4-(trifluoromethoxy)phenylamino)pyrimidin-4-yl)phenyl)methanone]	240 nM
